Experimental findings from patent publication US20230113262A1, “Peptide for cancer immunotherapy rupturing tumor-derived vesicle and use thereof” (RESEARCH & BUSINESS FOUNDATION SUNGKYUNKWAN UNIVERSITY, priority 2021, published 2023) are described below.

The test system of data set [1] is melanoma cell line B16F10. As to the kind of experiment: Cytotoxicity assay (MTT) in B16F10. Format: cell-based, mouse. The note with it: B16F10 cells. The method, then:
(§1) First, 10^4 cells of each cell line were seeded in a 96-well plate, and cultured for 24 hours. After culturing for 4 hours in a serum-free culture medium, the peptides at each concentration were injected into the wells and further incubated for 4 hours. After discarding a supernatant, 0.5 mg/ml of MTT-containing medium was treated and then left for 2 hours, formazan crystals in the cells were dissolved in each well using dimethyl sulfoxide. Then, cytotoxicity was analyzed by measuring absorbance at 570 nm using a microplate reader.

The subject of data set [2] is fibroblast cell line NIH3T3. As to the kind of experiment: Cytotoxicity assay (MTT) in NIH3T3. The data set is classed as cell-based, mouse. The note with it: NIH3T3 cells. The method, then:
as §1

Data set [3] deals with T1, PD-L1 on tumor-derived exosomes (T-EXO) isolated from the plasma of B16F10 melanoma tumor-bearing mice (mouse, UniProt Q9EP73 19-290).
T1 construct: whole, on cells; also called PD-L1^EXO; exosomal PD-L1
Kind of data set: ELISA: T-EXO captured on PD-L1 antibody-coated plate, biotin-labeled murine PD-1 (4 ug/ml) detected with streptavidin-HRP, OD 450 nm. A general note: In an ELISA, binding on a coated surface is turned into a signal by an enzyme label.
Procedure: After treating the plate for 2 hours, the plate was washed with PBS-T (PBS containing 0.05% Tween-20). […] Wells were washed with PBS-T three times, and treated with horseradish peroxidase-conjugated streptavidin (100 μl per well; R&D Systems) diluted in 0.5% BSA-containing PBS for 30 minutes. After washing with PBS-T, the plate was treated with tetramethylbenzidine (R&D Systems) and the reaction was stopped by adding 0.5 N H₂SO₄.

T1 sequence (Q9EP73 19-290, one chain of several): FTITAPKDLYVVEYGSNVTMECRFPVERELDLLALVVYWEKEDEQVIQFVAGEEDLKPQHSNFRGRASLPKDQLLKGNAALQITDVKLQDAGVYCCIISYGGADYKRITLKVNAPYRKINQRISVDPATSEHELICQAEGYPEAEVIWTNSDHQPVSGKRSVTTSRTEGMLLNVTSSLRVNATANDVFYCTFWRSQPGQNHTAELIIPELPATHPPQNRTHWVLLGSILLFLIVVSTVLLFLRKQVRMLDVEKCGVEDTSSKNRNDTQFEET

For the molecule `CC[C@@H](C)[C@@H](NC(=O)[C@@H](Cc1c[nH]c2ccccc12)NC(=O)[C@@H](CC(=O)O)NC(=O)[C@@H](Cc1c[nH]c2ccccc12)NC(=O)[C@H](NC(=O)[C@@H](CC(=O)O)NC(=O)[C@@H](CCCNC(=N)N)NC(=O)[C@@H](CC(C)C)NC(=O)[C@@H](Cc1c[nH]c2ccccc12)NC(=O)[C@@H](CO)NC(=O)CNC(=O)[C@H](N)CO)C(C)C)C(=O)N[C@H](CS)C(=O)N[C@@H](C(=O)N[C@@H](C(=O)N[C@H](CC(C)C)C(=O)N[C@@H](C(=O)N[C@H](CC(=O)O)C(=O)N[C@H](Cc1ccccc1)C(=O)N[C@H](CCCCN)C(=O)N[C@@H](C(=O)N[C@H](Cc1c[nH]c2ccccc12)C(=O)N[C@H](CC(C)C)C(=O)N[C@H](CCC(N)=O)C(=O)N[C@H](CO)C(=O)N[C@H](CCCCN)C(=O)N[C@H](CC(C)C)C(N)=O)[C@H](C)O)[C@H](C)O)C(C)C)[C@H](C)O` [AH-D peptide], the cytotoxicity entry is “neither the AH-D peptide nor the NH-D peptide has cytotoxicity” in data set [1], “did not exhibit cytotoxicity” in data set [1] (listed as AH peptide), “neither the AH-D peptide nor the NH-D peptide has cytotoxicity” in data set [2] and “did not exhibit cytotoxicity” in data set [2] (listed as AH peptide).

Turning to `CC(C)C[C@@H](NC(=O)[C@@H](CCCCN)NC(=O)[C@@H](CO)NC(=O)[C@@H](CCC(N)=O)NC(=O)[C@@H](CC(C)C)NC(=O)[C@@H](Cc1c[nH]c2ccccc12)NC(=O)[C@H](NC(=O)[C@@H](CCCCN)NC(=O)[C@@H](CC(=O)O)NC(=O)[C@@H](CC(=O)O)NC(=O)[C@H](NC(=O)[C@@H](CC(C)C)NC(=O)[C@H](NC(=O)[C@H](NC(=O)[C@@H](CS)NC(=O)[C@@H](CCC(=O)O)NC(=O)[C@@H](Cc1c[nH]c2ccccc12)NC(=O)[C@@H](CC(=O)O)NC(=O)[C@@H](Cc1c[nH]c2ccccc12)NC(=O)[C@@H](CC(=O)O)NC(=O)[C@@H](CC(=O)O)NC(=O)[C@@H](CCCNC(=N)N)NC(=O)[C@@H](CC(C)C)NC(=O)[C@@H](Cc1c[nH]c2ccccc12)NC(=O)[C@@H](CO)NC(=O)CNC(=O)[C@H](N)CO)[C@H](C)O)C(C)C)[C@H](C)O)[C@H](C)O)C(N)=O` [NH-D peptide, reference compound], the cytotoxicity entry in data set [1] and in data set [2] was “neither the AH-D peptide nor the NH-D peptide has cytotoxicity” each time.

B1: biotin-labeled murine PD-1 protein (cat no. 71118, BPS Bioscience) (receptor, UniProt Q02242 25-167, looked up)
chain: LEVPNGPWRSLTFYPAWLTVSEGANATFTCSLSNWSEDLMLNWNRLSPSNQTEKQAAFCNGLSQPVQDARFQIIQLPNRHDFHMNILDTRRNDSGIYLCGAISLHPKAKIEESPGAELVVTERILETSTRYPSPSPKPEGRFQ
notes: also called biotin-labeled PD-1 protein
Take B1: the binding result in data set [3] is “binds”.
